# Experimental data taken from patent publication US10758534B2 (Vertex Pharmaceuticals Incorporated, priority 2014, dated 2020).
# Target: T1, F508del (Homo sapiens, UniProt P13569, DEL508-508)
# T1 construct: expressed in transfected cells
# Experiment: Protocol 1: membrane potential optical assay (FLIPR III, voltage sensing dye), identification of potentiator compounds
# Type: cell-based
# Conditions: Table 3, compounds of Table 1
# Summary of the method: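 Membrane potential in forskolin-activated, temperature-rescued F508del NIH 3T3 cells is followed with a voltage-sensing dye on FLIPR III. A chloride ion gradient created at the single addition step provides the driving force, after prior compound treatment.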
# T1 sequence (P13569 with tags, fused parts or gaps DEL508-508): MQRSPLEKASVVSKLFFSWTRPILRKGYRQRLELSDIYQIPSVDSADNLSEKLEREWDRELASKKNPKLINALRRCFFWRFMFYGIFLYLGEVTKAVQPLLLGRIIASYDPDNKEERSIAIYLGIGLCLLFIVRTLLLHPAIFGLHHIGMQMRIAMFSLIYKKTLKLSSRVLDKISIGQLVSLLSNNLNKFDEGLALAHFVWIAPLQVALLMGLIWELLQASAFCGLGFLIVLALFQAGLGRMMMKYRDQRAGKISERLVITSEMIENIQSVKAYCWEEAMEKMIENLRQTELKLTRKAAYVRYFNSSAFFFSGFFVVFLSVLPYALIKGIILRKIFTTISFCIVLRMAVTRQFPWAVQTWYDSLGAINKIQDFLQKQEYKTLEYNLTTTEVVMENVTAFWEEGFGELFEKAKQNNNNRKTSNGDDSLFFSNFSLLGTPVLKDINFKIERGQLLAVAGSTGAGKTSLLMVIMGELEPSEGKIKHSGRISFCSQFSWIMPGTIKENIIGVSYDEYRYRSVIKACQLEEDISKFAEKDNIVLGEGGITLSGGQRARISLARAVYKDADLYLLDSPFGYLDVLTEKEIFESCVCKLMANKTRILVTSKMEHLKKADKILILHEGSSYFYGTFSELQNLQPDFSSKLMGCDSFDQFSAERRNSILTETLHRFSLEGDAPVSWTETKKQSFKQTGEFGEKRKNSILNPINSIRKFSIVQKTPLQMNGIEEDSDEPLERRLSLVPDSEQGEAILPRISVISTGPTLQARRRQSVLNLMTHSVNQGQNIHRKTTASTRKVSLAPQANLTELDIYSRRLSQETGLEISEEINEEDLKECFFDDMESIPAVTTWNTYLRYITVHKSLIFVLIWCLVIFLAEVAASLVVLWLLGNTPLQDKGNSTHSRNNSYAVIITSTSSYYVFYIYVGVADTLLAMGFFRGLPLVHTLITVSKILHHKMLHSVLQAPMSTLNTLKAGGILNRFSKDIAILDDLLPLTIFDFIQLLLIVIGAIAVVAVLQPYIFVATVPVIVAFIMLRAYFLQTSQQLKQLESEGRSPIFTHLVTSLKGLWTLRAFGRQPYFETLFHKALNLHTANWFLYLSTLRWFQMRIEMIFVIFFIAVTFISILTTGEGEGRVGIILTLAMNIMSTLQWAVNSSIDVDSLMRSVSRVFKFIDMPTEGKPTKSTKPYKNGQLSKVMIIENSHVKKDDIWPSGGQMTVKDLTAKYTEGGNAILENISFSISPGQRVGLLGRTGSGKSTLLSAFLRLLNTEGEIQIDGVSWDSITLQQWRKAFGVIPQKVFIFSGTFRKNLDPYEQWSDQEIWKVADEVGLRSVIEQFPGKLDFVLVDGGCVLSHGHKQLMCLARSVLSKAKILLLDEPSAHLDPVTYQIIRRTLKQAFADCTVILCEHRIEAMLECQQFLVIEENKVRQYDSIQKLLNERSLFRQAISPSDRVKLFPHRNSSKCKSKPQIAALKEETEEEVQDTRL
row,EC30,Compound
1,++ (“++” means between 3 uM and 10 uM),"CC1CN(c2ncccc2C(=O)NS(=O)(=O)c2cccc(N3CCN(CC4OCCO4)CC3)n2)C(C)(C)C1 (stereo not shown) [Compound 1937, N—[[6-[4-(1,3-dioxolan-2-ylmethyl)piperazin-1-yl]-2-pyridyl]sulfonyl]-2-(2,2,4-trimethylpyrrolidin-1-yl)pyridine-3-carboxamide]"
2,+++ (“+++” means <3 uM),"CC1CN(c2ncccc2C(=O)NS(=O)(=O)c2cccc(NCc3ccccc3)n2)C(C)(C)C1 (stereo not shown) [Compound 1938, N—[[6-(benzylamino)-2-pyridyl]sulfonyl]-2-(2,2,4-trimethylpyrrolidin-1-yl)pyridine-3-carboxamide]"
3,++ (“++” means between 3 uM and 10 uM),"CC1CN(c2ncccc2C(=O)NS(=O)(=O)c2cccc(OCC3CCCCO3)n2)C(C)(C)C1 (stereo not shown) [Compound 1939, N—[[6-(tetrahydropyran-2-ylmethoxy)-2-pyridyl]sulfonyl]-2-(2,2,4-trimethylpyrrolidin-1-yl)pyridine-3-carboxamide]"
4,+++ (“+++” means <3 uM),"COc1cccc(CN(C)c2cccc(S(=O)(=O)NC(=O)c3cccnc3N3CC(C)CC3(C)C)n2)c1 (stereo not shown) [Compound 1940, N—[[6-[(3-methoxyphenyl)methyl-methyl-amino]-2-pyridyl]sulfonyl]-2-(2,2,4-trimethylpyrrolidin-1-yl)pyridine-3-carboxamide]"
5,+++ (“+++” means <3 uM),"CC1CN(c2ncccc2C(=O)NS(=O)(=O)c2cccc(Nc3cc(F)ccc3Cl)n2)C(C)(C)C1 (stereo not shown) [Compound 1941, N—[[6-(2-chloro-5-fluoro-anilino)-2-pyridyl]sulfonyl]-2-(2,2,4-trimethylpyrrolidin-1-yl)pyridine-3-carboxamide]"
6,++ (“++” means between 3 uM and 10 uM),"C[C@@H]1CN(c2nc(C3=CCCN(S(=O)(=O)N4CCCCC4)C3)ccc2C(=O)NS(=O)(=O)c2cccc(N)n2)C(C)(C)C1 [Compound 1942, N-[(6-amino-2-pyridyl)sulfonyl]-6-[1-(1-piperidylsulfonyl)-3,6-dihydro-2H-pyridin-5-yl]-2-[(4S)-2,2,4-trimethylpyrrolidin-1-yl]pyridine-3-carboxamide]"
7,++ (“++” means between 3 uM and 10 uM),"COCCOCc1cccc(-c2cnc(N3CC(C)CC3(C)C)c(C(=O)NS(=O)(=O)c3cccc(N)n3)c2)c1 (stereo not shown) [Compound 1943, N-[(6-amino-2-pyridyl)sulfonyl]-5-[3-(2-methoxyethoxymethyl)phenyl]-2-(2,2,4-trimethylpyrrolidin-1-yl)pyridine-3-carboxamide]"
8,+++ (“+++” means <3 uM),"Cc1c(F)cccc1-c1ccc(C(=O)NS(=O)(=O)c2cccnc2N)c(N2C[C@@H](C)CC2(C)C)n1 [Compound 1944, N-[(2-amino-3-pyridyl)sulfonyl]-6-(3-fluoro-2-methyl-phenyl)-2-[(4S)-2,2,4-trimethylpyrrolidin-1-yl]pyridine-3-carboxamide]"
9,+++ (“+++” means <3 uM),"CCOc1ccc(-c2ccc(C(=O)NS(=O)(=O)c3cccnc3N)c(N3C[C@@H](C)CC3(C)C)n2)cc1 [Compound 1945, N-[(2-amino-3-pyridyl)sulfonyl]-6-(4-ethoxyphenyl)-2-[(4S)-2,2,4-trimethylpyrrolidin-1-yl]pyridine-3-carboxamide]"
10,+++ (“+++” means <3 uM),"Cc1ccc(F)c(-c2ccc(C(=O)NS(=O)(=O)c3ccc[nH]c3=O)c(N3C[C@@H](C)CC3(C)C)n2)c1 [Compound 1946, 6-(2-fluoro-5-methyl-phenyl)-N-[(2-oxo-1H-pyridin-3-yl)sulfonyl]-2-[(4S)-2,2,4-trimethylpyrrolidin-1-yl]pyridine-3-carboxamide]"
11,++ (“++” means between 3 uM and 10 uM),"C[C@@H]1CN(c2nc(-c3ccc(F)cc3F)ccc2C(=O)NS(=O)(=O)N2CC[C@H](N)C2)C(C)(C)C1 [Compound 1947, N-[(3S)-3-aminopyrrolidin-1-yl]sulfonyl-6-(2,4-difluorophenyl)-2-[(4S)-2,2,4-trimethylpyrrolidin-1-yl]pyridine-3-carboxamide]"
12,+++ (“+++” means <3 uM),"CCOCCOc1cc(-c2ccc(C(=O)NS(=O)(=O)c3cccc(N)n3)c(N3C[C@@H](C)CC3(C)C)n2)cc(C)n1 [Compound 1948, N-[(6-amino-2-pyridyl)sulfonyl]-6-[2-(2-ethoxyethoxy)-6-methyl-4-pyridyl]-2-[(4S)-2,2,4-trimethylpyrrolidin-1-yl]pyridine-3-carboxamide]"
13,+++ (“+++” means <3 uM),"CC(=O)c1cccc(Nc2cccc(S(=O)(=O)NC(=O)c3cccnc3N3CC(C)CC3(C)C)n2)c1 (stereo not shown) [Compound 1949, N—[[6-(3-acetylanilino)-2-pyridyl]sulfonyl]-2-(2,2,4-trimethylpyrrolidin-1-yl)pyridine-3-carboxamide]"
14,+++ (“+++” means <3 uM),"CC1CN(c2ncc(-c3cccc(C(F)(F)F)c3)cc2C(=O)NS(=O)(=O)c2cccc(N)n2)C(C)(C)C1 (stereo not shown) [Compound 1950, N-[(6-amino-2-pyridyl)sulfonyl]-5-[3-(trifluoromethyl)phenyl]-2-(2,2,4-trimethylpyrrolidin-1-yl)pyridine-3-carboxamide]"
15,+++ (“+++” means <3 uM),"Cc1ccc(C)c(-c2ccc(C(=O)NS(=O)(=O)c3cccnc3N)c(N3C[C@@H](C)CC3(C)C)n2)c1 [Compound 1951, N-[(2-amino-3-pyridyl)sulfonyl]-6-(2,5-dimethylphenyl)-2-[(4S)-2,2,4-trimethylpyrrolidin-1-yl]pyridine-3-carboxamide]"
16,+++ (“+++” means <3 uM),"C[C@@H]1CN(c2nc(-n3ccc(OCC(C)(C)C)n3)ccc2C(=O)NS(=O)(=O)c2cccc(N)n2)C(C)(C)C1 [Compound 1952, N-[(6-amino-2-pyridyl)sulfonyl]-6-[3-(2,2-dimethylpropoxy)pyrazol-1-yl]-2-[(4S)-2,2,4-trimethylpyrrolidin-1-yl]pyridine-3-carboxamide]"
17,+++ (“+++” means <3 uM),"CC1CN(c2ncccc2C(=O)NS(=O)(=O)c2cccc(OCc3cccc(C(F)(F)F)c3)n2)C(C)(C)C1 (stereo not shown) [Compound 1953, N—[[6-[[3-(trifluoromethyl)phenyl]methoxy]-2-pyridyl]sulfonyl]-2-(2,2,4-trimethylpyrrolidin-1-yl)pyridine-3-carboxamide]"
18,+++ (“+++” means <3 uM),"C[C@@H]1CN(c2nc(-c3cc(F)ccc3F)ccc2C(=O)NS(=O)(=O)c2ccc[nH]c2=O)C(C)(C)C1 [Compound 1954, 6-(2,5-difluorophenyl)-N-[(2-oxo-1H-pyridin-3-yl)sulfonyl]-2-[(4S)-2,2,4-trimethylpyrrolidin-1-yl]pyridine-3-carboxamide]"
19,+++ (“+++” means <3 uM),"CC1CN(c2ncccc2C(=O)NS(=O)(=O)c2cccc(Oc3cccc4c3CCCC4)n2)C(C)(C)C1 (stereo not shown) [Compound 1955, N-[(6-tetralin-5-yloxy-2-pyridyl)sulfonyl]-2-(2,2,4-trimethylpyrrolidin-1-yl)pyridine-3-carboxamide]"
20,++ (“++” means between 3 uM and 10 uM),"CC1CN(c2ncccc2C(=O)NS(=O)(=O)c2cccc(Oc3cncc(Cl)c3)n2)C(C)(C)C1 (stereo not shown) [Compound 1957, N—[[6-[(5-chloro-3-pyridyl)oxy]-2-pyridyl]sulfonyl]-2-(2,2,4-trimethylpyrrolidin-1-yl)pyridine-3-carboxamide]"
21,+++ (“+++” means <3 uM),"C[C@@H]1CN(c2nc(-c3ccccc3)ccc2C(=O)NS(=O)(=O)c2cccnc2N)C(C)(C)C1 [Compound 1958, N-[(2-amino-3-pyridyl)sulfonyl]-6-phenyl-2-[(4S)-2,2,4-trimethylpyrrolidin-1-yl]pyridine-3-carboxamide]"
22,+++ (“+++” means <3 uM),"COc1ccccc1Nc1cccc(S(=O)(=O)NC(=O)c2cccnc2N2CC(C)CC2(C)C)n1 (stereo not shown) [Compound 1959, N—[[6-(2-methoxyanilino)-2-pyridyl]sulfonyl]-2-(2,2,4-trimethylpyrrolidin-1-yl)pyridine-3-carboxamide]"
23,+++ (“+++” means <3 uM),"C[C@@H]1CN(c2nc(-c3ccccc3C(F)(F)F)ccc2C(=O)NS(=O)(=O)c2ccc[nH]c2=O)C(C)(C)C1 [Compound 1960, N-[(2-oxo-1H-pyridin-3-yl)sulfonyl]-6-[2-(trifluoromethyl)phenyl]-2-[(4S)-2,2,4-trimethylpyrrolidin-1-yl]pyridine-3-carboxamide]"
24,+++ (“+++” means <3 uM),CC(C)COc1cc(F)cc(-c2ccc(C(=O)NS(=O)(=O)c3cccc(N)n3)c(C3=C[C@H](C)CC3(C)C)n2)c1 [Compound 1961]
25,+++ (“+++” means <3 uM),"COc1ccccc1-c1ccc(C(=O)NS(=O)(=O)c2cccnc2N)c(N2C[C@@H](C)CC2(C)C)n1 [Compound 1962, N-[(2-amino-3-pyridyl)sulfonyl]-6-(2-methoxyphenyl)-2-[(4S)-2,2,4-trimethylpyrrolidin-1-yl]pyridine-3-carboxamide]"

row,Compound,EC30
1,"CC(C)COc1cc(F)cc(-c2ccc(C(=O)NS(=O)(=O)N[C@H]3CCNC3)c(N3C[C@@H](C)CC3(C)C)n2)c1 [Compound 1935, 6-(3-fluoro-5-isobutoxy-phenyl)-N—[[(3S)-pyrrolidin-3-yl]sulfamoyl]-2-[(4S)-2,2,4-trimethylpyrrolidin-1-yl]pyridine-3-carboxamide]",+++ (“+++” means <3 uM)
2,"CC1CN(c2ncccc2C(=O)NS(=O)(=O)c2cccc(OC3(C)CCCC3)n2)C(C)(C)C1 (stereo not shown) [Compound 1936, N—[[6-(1-methylcyclopentoxy)-2-pyridyl]sulfonyl]-2-(2,2,4-trimethylpyrrolidin-1-yl)pyridine-3-carboxamide]",+++ (“+++” means <3 uM)
3,"CC(C)COc1cc(F)cc(-c2ccc(C(=O)NS(=O)(=O)N3CCC(F)(F)C3)c(N3C[C@@H](C)CC3(C)C)n2)c1 [Compound 1956, N-(3,3-difluoropyrrolidin-1-yl)sulfonyl-6-(3-fluoro-5-isobutoxy-phenyl)-2-[(4S)-2,2,4-trimethylpyrrolidin-1-yl]pyridine-3-carboxamide]",+++ (“+++” means <3 uM)
